According to ChEMBL document CHEMBL1153603, “Phenethyl pyridines with non-polar internal substituents as selective ligands for estrogen receptor beta” (Eur J Med Chem, 2009):

What was measured:
Estrogen receptor beta [1] = target: T1, Estrogen receptor beta (Homo sapiens, UniProt Q92731); assay: Displacement of [3H]estradiol form human ERbeta receptor assessed as relative binding affinity by competitive radiometric binding assay relative to estradiol
Estrogen receptor beta [2] = target: T1, Estrogen receptor beta; assay: Activity at human ERbeta expressed in HEC1 cells co-transfected with 2ERE-pS2-Luc assessed as relative transcriptional potency by luciferase reporter assay relative to estradiol; type: cell-based; conditions: HEC-1
Estrogen receptor = target: T2, Estrogen receptor (Homo sapiens, UniProt P03372); assay: Activity at human ERalpha expressed in HEC1 cells co-transfected with 2ERE-pS2-Luc assessed as relative transcriptional potency by luciferase reporter assay; type: cell-based, HEC-1
T2 sequence (P03372 whole entry): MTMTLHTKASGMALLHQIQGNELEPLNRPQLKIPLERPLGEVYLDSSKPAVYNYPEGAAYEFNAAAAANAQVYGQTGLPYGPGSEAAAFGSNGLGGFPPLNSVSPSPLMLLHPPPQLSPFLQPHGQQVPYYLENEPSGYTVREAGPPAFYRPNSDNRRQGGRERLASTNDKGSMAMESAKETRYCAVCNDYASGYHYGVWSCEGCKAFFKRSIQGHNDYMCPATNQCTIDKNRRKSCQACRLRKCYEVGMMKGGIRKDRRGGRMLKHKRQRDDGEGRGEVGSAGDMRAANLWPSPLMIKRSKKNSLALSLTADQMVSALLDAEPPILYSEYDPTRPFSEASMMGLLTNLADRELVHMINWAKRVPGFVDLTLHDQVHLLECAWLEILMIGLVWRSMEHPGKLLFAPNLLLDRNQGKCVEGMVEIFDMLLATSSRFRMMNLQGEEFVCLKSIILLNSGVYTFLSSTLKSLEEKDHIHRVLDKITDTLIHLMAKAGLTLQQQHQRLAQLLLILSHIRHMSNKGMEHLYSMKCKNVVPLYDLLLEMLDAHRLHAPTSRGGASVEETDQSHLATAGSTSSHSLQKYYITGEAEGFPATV

Estrogen receptor beta [3] = target: T1, Estrogen receptor beta; assay: Activity at human ERbeta expressed in HEC1 cells co-transfected with 2ERE-pS2-Luc assessed as relative transcriptional potency by luciferase reporter assay; type: cell-based, HEC-1

T1 sequence (Q92731 whole entry): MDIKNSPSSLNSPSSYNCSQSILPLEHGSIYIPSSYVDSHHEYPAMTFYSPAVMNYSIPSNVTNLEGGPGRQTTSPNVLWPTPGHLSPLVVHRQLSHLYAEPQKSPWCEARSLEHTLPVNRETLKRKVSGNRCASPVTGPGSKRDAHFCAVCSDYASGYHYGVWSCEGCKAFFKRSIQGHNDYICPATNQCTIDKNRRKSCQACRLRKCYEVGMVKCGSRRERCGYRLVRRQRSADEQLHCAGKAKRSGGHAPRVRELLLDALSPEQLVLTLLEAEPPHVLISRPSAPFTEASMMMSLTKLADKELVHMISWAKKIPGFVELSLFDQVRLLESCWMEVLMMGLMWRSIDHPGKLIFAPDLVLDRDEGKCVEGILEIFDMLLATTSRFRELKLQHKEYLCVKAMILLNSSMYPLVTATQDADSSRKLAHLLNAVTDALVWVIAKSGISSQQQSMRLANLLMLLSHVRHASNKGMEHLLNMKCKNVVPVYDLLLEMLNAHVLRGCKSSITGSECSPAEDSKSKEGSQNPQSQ

`CCC(Cc1ccc(O)cc1)c1ccc(O)cn1` (stereo not given) gave an RBA (Estrogen receptor beta [1]) of 0.72%, an Activity (Estrogen receptor beta [2]) of 2.94% and an EC50 (Estrogen receptor) of 0.065 µM. For the same compound, the EC50 (Estrogen receptor beta [3]) was 0.017 µM.

`Oc1ccc(CCc2ccc(O)cn2)cc1` showed an RBA (Estrogen receptor beta [1]) of 0.025%.

Work on `CC[C@H](c1ccccc1)[C@H](CC)c1ccc(O)cn1` yielded an RBA (Estrogen receptor beta [1]) of 0.023%.

For `CC[C@H](c1ccc(O)cn1)[C@H](C)c1ccc(O)cc1` (relative stereo), the RBA (Estrogen receptor beta [1]) was 0.119%.

With `CC[C@H](c1ccc(O)cn1)[C@@H](CC)c1ccc(O)cc1` (relative stereo) the RBA (Estrogen receptor beta [1]) was 7.5%, the Activity (Estrogen receptor beta [2]) was 82% and the EC50 (Estrogen receptor) was 0.00011 µM. For the same compound, the EC50 (Estrogen receptor beta [3]) was 0.00061 µM.

`CC[C@H](c1ccc(O)cn1)[C@@H](CC)c1ccccc1` gave an RBA (Estrogen receptor beta [1]) of 0.684%.

In the case of `CCCC(Cc1ccc(O)cc1)c1ccc(O)cn1` (stereo not given), the RBA (Estrogen receptor beta [1]) is reported as 0.101%.

Compound `CC(Cc1ccc(O)cc1)c1ccc(O)cn1` (stereo not given) has an RBA (Estrogen receptor beta [1]) of 0.27%, an Activity (Estrogen receptor beta [2]) of 0.83% and an EC50 (Estrogen receptor) of 0.33 µM. The EC50 (Estrogen receptor beta [3]) was 0.06 µM.

For `CC(Cc1ccc(O)cn1)c1ccc(O)cc1` (stereo not given), the RBA (Estrogen receptor beta [1]) was 0.17%, the Activity (Estrogen receptor beta [2]) was 0.29% and the EC50 (Estrogen receptor) was 0.44 µM. For the same compound, the EC50 (Estrogen receptor beta [3]) was 0.17 µM.

In the case of `CC[C@H](c1ccc(O)cc1)[C@H](CC)c1ccc(O)cn1` (relative stereo), the RBA (Estrogen receptor beta [1]) is reported as 0.67%, the Activity (Estrogen receptor beta [2]) is reported as 1.9% and the EC50 (Estrogen receptor) is reported as 0.016 µM. The EC50 (Estrogen receptor beta [3]) was 0.026 µM.

Work on `CCC(Cc1ccc(O)cn1)c1ccc(O)cc1` (stereo not given) yielded an RBA (Estrogen receptor beta [1]) of 0.15%.

Compound `CC[C@H](c1ccc(O)cn1)[C@@H](C)c1ccc(O)cc1` (relative stereo) has an RBA (Estrogen receptor beta [1]) of 5.3%, an Activity (Estrogen receptor beta [2]) of 45% and an EC50 (Estrogen receptor) of 0.00011 µM. It also gave an EC50 (Estrogen receptor beta [3]) of 0.0011 µM.
